Measurements reported in US20230140216A1, “COMBINATION THERAPY FOR TREATING MPS1” (GAIN THERAPEUTICS SA, priority 2020, published 2023).
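Note: Classes count stabilization of α-L-iduronidase despite the GALC label.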

These compounds were tested against T1, Recombinant human α-L-iduronidase protein (Homo sapiens, UniProt P35475) (assay: Differential scanning fluorimetry (DSF) thermal stabilization). Details: commercially available Examples 8-37; ΔTm class.
T1 construct: purchased R&D
T1 sequence (P35475 28-653): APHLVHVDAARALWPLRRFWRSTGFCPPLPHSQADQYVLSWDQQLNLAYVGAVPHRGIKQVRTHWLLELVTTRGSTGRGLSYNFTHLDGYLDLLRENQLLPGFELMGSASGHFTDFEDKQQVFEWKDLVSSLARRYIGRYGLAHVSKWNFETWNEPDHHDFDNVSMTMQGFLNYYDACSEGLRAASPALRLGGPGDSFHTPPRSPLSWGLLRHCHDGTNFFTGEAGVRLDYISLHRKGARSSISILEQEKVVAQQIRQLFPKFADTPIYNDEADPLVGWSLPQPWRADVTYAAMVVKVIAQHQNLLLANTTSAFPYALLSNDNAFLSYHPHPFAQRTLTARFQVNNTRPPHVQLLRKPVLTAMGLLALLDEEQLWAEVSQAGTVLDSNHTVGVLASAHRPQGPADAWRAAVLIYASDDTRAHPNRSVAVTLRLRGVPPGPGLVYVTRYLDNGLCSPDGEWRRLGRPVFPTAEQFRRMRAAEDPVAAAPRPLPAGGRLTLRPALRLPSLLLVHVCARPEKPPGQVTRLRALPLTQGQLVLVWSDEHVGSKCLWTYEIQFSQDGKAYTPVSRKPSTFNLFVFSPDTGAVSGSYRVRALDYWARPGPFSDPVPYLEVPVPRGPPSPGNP
Format: binding
Procedure: The capacity of Compounds of the Disclosure to stabilize α-L-iduronidase was assessed by differential scanning fluorimetry technique. The thermal denaturation of purified human native enzyme was monitored in the presence of the extrinsic fluorescent probe SYPRO Orange (Sigma-Aldrich, St. Louis, MO). The tested compounds were dissolved in 100% DMSO and diluted into the protein buffer to achieve final concentrations of 1% DMSO.
Recombinant human α-L-iduronidase protein (purchased from R&D) 12.5 µL of 1.5 µM in 100 mM Hepes 20 mM MgCl2 pH 7 (protein final concentration 0.75 µM) with Sypro Orange 10X and 12.5 µl of the different compound solutions were dispensed into 96-well PCR-plates. The intensity of SYPRO Orange fluorescence after a systematic increase of temperature was monitored in the Roche LightCycler® 480 II device (Roche Diagnostics).
The capacity to stabilize α-L-iduronidase is denoted as follows: • ΔTm GALC > 1 is shown as A; • ΔTm GALC between 0.5 and 1 is shown as B; • ΔTm GALC between 0.1 and 0.5 is shown as C; and • ΔTm GALC less than 0.1 is shown as D.
`CN(CC(=O)Nc1cccc(F)c1)Cc1nc2ccsc2c(=O)[nH]1` [Example 9, N-(3-fluorophenyl)-2-(methyl((4-oxo-3,4-dihydrothieno[3,2-d]pyrimidin-2-yl)methyl)amino)acetamide] was tested, and the “DSF Activity range” value was “A (ΔTm GALC > 1 is shown as A)”. For `CCN(CC(=O)Nc1cccc(OC)c1)Cc1nc2ccsc2c(=O)[nH]1` [Example 10, 2-(ethyl((4-oxo-3,4-dihydrothieno[3,2-d]pyrimidin-2-yl)methyl)amino)-N-(3-methoxyphenyl)acetamide], the “DSF Activity range” value was “C (ΔTm GALC between 0.1 and 0.5 is shown as C)”. In the case of `CCCN(CC(=O)Nc1ccc(F)cc1F)Cc1nc2ccsc2c(=O)[nH]1` [Example 11, N-(2,4-difluorophenyl)-2-(((4-oxo-3,4-dihydrothieno[3,2-d]pyrimidin-2-yl)methyl)(propyl)amino)acetamide], the “DSF Activity range” value is reported as “B (ΔTm GALC between 0.5 and 1 is shown as B)”. For `CN(CC(=O)Nc1ccccc1Cl)Cc1nc2ccsc2c(=O)[nH]1` [Example 12, N-(2-chlorophenyl)-2-(methyl((4-oxo-3,4-dihydrothieno[3,2-d]pyrimidin-2-yl)methyl)amino)acetamide], the “DSF Activity range” value was “B (ΔTm GALC between 0.5 and 1 is shown as B)”. For `CCN(CC(=O)NC(C)(C)C)Cc1nc2ccsc2c(=O)[nH]1` [Example 13, N-(tert-butyl)-2-(ethyl((4-oxo-3,4-dihydrothieno[3,2-d]pyrimidin-2-yl)methyl)amino)acetamide], the “DSF Activity range” value was “D (ΔTm GALC less than 0.1 is shown as D)”.

Same assay, conditions: synthetized Examples 1-7; ΔTm class
`CN(CC(=O)N(C)c1ccccc1Cl)Cc1nc(O)c2cnn(-c3ccccc3)c2n1` [Example 1, N-(2-chlorophenyl)-2-(((4-hydroxy-1-phenyl-1H-pyrazolo[3,4-d]pyrimidin-6-yl)methyl)(methyl)amino)-N-methylacetamide] was tested, and the “DSF Activity range” value was “A (ΔTm GALC > 1 is shown as A)”. With `Cc1ccccc1-n1ncc2c(O)nc(CN(C)CC(=O)N(C)c3ccccc3Cl)nc21` [Example 2, N-(2-chlorophenyl)-2-(((4-hydroxy-1-o-tolyl-1H-pyrazolo[3,4-d]pyrimidin-6-yl)methyl)(methyl)amino)-N-methylacetamide] the “DSF Activity range” value was “C (ΔTm GALC between 0.1 and 0.5 is shown as C)”. `Cc1cccc(-n2ncc3c(O)nc(CN(C)CC(=O)N(C)c4ccccc4Cl)nc32)c1` [Example 3, N-(2-chlorophenyl)-2-(((4-hydroxy-1-m-tolyl-1H-pyrazolo[3,4-d]pyrimidin-6-yl)methyl)(methyl)amino)-N-methylacetamide] was tested, and the “DSF Activity range” value was “C (ΔTm GALC between 0.1 and 0.5 is shown as C)”. With `Cc1ccc(-n2ncc3c(O)nc(CN(C)CC(=O)N(C)c4ccccc4Cl)nc32)cc1` [Example 4, N-(2-chlorophenyl)-2-(((4-hydroxy-1-p-tolyl-1H-pyrazolo[3,4-d]pyrimidin-6-yl)methyl)(methyl)amino)-N-methylacetamide] the “DSF Activity range” value was “B (ΔTm GALC between 0.5 and 1 is shown as B)”. In the case of `COc1ccccc1-n1ncc2c(O)nc(CN(C)CC(=O)N(C)c3ccccc3Cl)nc21` [Example 5, N-(2-chlorophenyl)-2-(((4-hydroxy-1-(2-methoxyphenyl)-1H-pyrazolo[3,4-d]pyrimidin-6-yl)methyl)(methyl)amino)-N-methylacetamide], the “DSF Activity range” value is reported as “D (ΔTm GALC less than 0.1 is shown as D)”. In the case of `COc1cccc(-n2ncc3c(O)nc(CN(C)CC(=O)N(C)c4ccccc4Cl)nc32)c1` [Example 6, N-(2-chlorophenyl)-2-(((4-hydroxy-1-(3-methoxyphenyl)-1H-pyrazolo[3,4-d]pyrimidin-6-yl)methyl)(methyl)amino)-N-methylacetamide], the “DSF Activity range” value is reported as “B (ΔTm GALC between 0.5 and 1 is shown as B)”. For `COc1ccc(-n2ncc3c(O)nc(CN(C)CC(=O)N(C)c4ccccc4Cl)nc32)cc1` [Example 7, N-(2-chlorophenyl)-2-(((4-hydroxy-1-(4-methoxyphenyl)-1H-pyrazolo[3,4-d]pyrimidin-6-yl)methyl)(methyl)amino)-N-methylacetamide], the “DSF Activity range” value was “C (ΔTm GALC between 0.1 and 0.5 is shown as C)”.
